Assay results taken from US9403806B1, “Cognition enhancing compounds and compositions, methods of making, and methods of treating” (NeuroSolis, Inc., priority 2010, dated 2016).

Assays:
[1] = rat, in vivo, po
in vitro = settings: PAMPA
CD-1 Mice = test: Novel object recognition assay; type: in vivo; settings: oral dose 3.0 mg/kg, 1 hr inter-trial interval
From the text: Object recognition memory—judgment of the prior occurrence of objects—is a key part of human memory, and is commonly impaired in neurodegenerative diseases, such as Alzheimer's disease (Winters B D et al Neurosci Behav Rev 32 (2008) 1055-70). This may be modeled in laboratory rodents using delayed spontaneous novel object recognition, which tests the ability of an animal to recognize an object it has previously been exposed to, after a delay. Drugs may be evaluated for their ability to improve the animal's ability to remember, recall or recognize objects in this model.
CD-1 Mice (males, 7-8 weeks old) were fasted for 16 hrs and orally dosed with compounds of interest 30 min before experiments began. Throughout those 30 min, animals were left in their home cages except during a 1 min handling habituation session at 10 min post-dosing. All handling and experiments were carried out under low, indirect light during the hours between 8 am and 3 pm. Compound 122a and donepezil were dissolved in PBS. […] Mouse activity was recorded using a digital video camera and evaluated after the trial. The time each mouse spent with its nose in contact with either object (investigation) was recorded for each minute of T2, and a Discrimination Score (D Score) was calculated using the following formula once the animal completed a total of 1 min of investigation. […]

[2] = tested on: pooled male human liver microsomes; test: Metabolism in human liver microsomes, Example 45; type: in vitro ADME
Method in brief: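 Pooled male human liver microsomes sampled every 2 hours, reactions stopped with 1% formic acid. After centrifugation and ultrafiltration, remaining parent compound quantified by reverse-phase C8 LC/MS/MS with electrospray and MRM transitions against a standard calibration curve.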

PAMPA test, Example 34 = settings: PAMPA
human FMO1 Supersomes = target: T1, human FMO1 Supersomes (Homo sapiens, UniProt Q01740); test: Metabolism by flavin monoxygenase 1 (FMO1) Supersomes; type: in vitro ADME; settings: after 6 hours (FIG. 2)
T1 construct: purchased BD Biosciences 456241
T1 sequence (Q01740 1-532): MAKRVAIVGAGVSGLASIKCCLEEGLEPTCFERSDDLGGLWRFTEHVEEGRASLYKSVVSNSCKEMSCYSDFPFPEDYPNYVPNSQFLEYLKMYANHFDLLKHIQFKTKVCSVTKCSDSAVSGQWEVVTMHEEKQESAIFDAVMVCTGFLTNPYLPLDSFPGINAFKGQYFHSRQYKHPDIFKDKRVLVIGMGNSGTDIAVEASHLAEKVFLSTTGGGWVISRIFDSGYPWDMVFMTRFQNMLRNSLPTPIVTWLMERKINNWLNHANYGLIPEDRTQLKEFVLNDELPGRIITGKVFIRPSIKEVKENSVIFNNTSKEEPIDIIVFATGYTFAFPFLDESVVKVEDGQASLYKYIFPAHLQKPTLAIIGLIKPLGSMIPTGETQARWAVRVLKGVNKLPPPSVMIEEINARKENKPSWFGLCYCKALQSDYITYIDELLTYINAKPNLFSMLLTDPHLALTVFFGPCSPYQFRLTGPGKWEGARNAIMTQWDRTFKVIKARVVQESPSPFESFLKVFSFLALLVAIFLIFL
Method: […] Aliquots were removed every 10 minutes, and 1% formic acid was added to halt the reaction. Samples were centrifuged, filtered through 0.2 micron spinfilter and the amount of each compound in the supernatants was quantitated using LC/MS/MS.

[3] = tested on: pooled male Sprague-Dawley rat liver microsomes; test: Metabolism by rat liver microsomes; type: in vitro ADME; settings: 6 hours incubation (FIG. 3)
Method: (§1) Compounds were incubated with pooled male Sprague-Dawley rat liver microsomes (BD Biosciences, #452501) and an NADP-regenerating system in a phosphate buffer (pH 7.4) for a total of 6 hours. Aliquots were removed every 2 hours, and 1% formic acid was added to halt the reaction. Samples were centrifuged, filtered through 0.2 micron spinfilter and the amount of each compound in the supernatants was quantitated using LC/MS/MS.

[4] = tested on: pooled male human liver microsomes; test: Metabolism by human liver microsomes, Example 33; type: in vitro ADME; settings: 6 hours incubation (FIGS. 4A, 4B)
Method: as §1, with “human” for “Sprague-Dawley rat”, “#452172)” for “#452501)”

[5] = target: T2, human muscarinic M1 receptors (Homo sapiens, UniProt P11229); test: IP production in A9L cells with human M1 receptors (IPOne TR-FRET), Example 28; type: cell-based
T2 construct: host or cells: A9L cells
T2 sequence (P11229 1-460): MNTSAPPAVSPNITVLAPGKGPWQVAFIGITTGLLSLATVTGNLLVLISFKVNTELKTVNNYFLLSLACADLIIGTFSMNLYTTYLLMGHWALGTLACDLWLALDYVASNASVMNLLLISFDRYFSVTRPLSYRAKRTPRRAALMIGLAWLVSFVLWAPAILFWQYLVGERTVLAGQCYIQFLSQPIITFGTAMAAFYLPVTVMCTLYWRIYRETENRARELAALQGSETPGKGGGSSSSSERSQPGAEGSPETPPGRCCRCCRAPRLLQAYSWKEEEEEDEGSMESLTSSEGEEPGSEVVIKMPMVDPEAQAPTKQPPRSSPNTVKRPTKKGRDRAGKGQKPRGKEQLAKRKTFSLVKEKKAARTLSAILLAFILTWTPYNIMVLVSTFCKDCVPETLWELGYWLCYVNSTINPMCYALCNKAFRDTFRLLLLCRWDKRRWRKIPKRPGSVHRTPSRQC
Method in brief: (§2)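 A9L cells transfected with human M1 or M3 receptors, exposed to compound in medium with 10 mM LiCl and 10 mM HEPES (pH 7.4) for 60 min at 37 °C. IP in lysates measured by IPOne TR-FRET; efficacy expressed relative to full agonist (100%).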

[6] = target: T3, human muscarinic M3 receptors (Homo sapiens, UniProt P20309); test: IP production in A9L cells with human M3 receptors (IPOne TR-FRET), Example 28; type: cell-based
T3 construct: host or cells: A9L cells
T3 sequence (P20309 whole entry): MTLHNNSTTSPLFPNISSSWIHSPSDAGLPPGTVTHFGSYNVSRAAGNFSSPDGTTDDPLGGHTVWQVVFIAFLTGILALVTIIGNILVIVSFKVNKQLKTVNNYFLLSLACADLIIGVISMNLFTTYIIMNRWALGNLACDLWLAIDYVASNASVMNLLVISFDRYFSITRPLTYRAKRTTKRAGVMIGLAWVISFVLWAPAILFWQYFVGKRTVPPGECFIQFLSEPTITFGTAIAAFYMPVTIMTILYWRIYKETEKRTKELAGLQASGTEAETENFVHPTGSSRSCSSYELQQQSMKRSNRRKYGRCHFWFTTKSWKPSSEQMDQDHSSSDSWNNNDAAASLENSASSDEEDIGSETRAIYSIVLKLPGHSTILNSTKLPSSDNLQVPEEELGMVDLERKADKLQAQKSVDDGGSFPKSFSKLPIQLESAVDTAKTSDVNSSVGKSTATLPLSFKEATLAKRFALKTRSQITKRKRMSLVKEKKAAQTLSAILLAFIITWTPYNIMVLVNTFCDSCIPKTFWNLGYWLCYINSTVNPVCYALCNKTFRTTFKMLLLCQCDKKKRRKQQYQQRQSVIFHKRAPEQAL
Method in brief: as §2

[7] = percentage of maximal stimulation by carbachol
[8] = potency relative to carbachol at its EC50, semi-quantitative

In the case of `CNC(=C[N+](=O)[O-])NCCSCc1ccc(CN(C)C)o1` [Ranitidine], the Brain/plasma ratio [1] is reported as “Very low” and the Papp (in vitro) is reported as 0.26 ×10⁻⁶ cm/s.
In the case of `CCCCCCOc1nsnc1C1=CCCN(C)C1` [Xanomeline, reference compound], the “Mean D Score” value (CD-1 Mice) is reported as 72.05% and the “Loss at 6 hrs (%)” value [2] is reported as 100%.
In the case of `COc1cc2c(cc1OC)C(=O)C(CC1CCN(Cc3ccccc3)CC1)C2` (stereo not drawn) [Donepezil], the “Mean D Score” value (CD-1 Mice) is reported as 70.35%.
For `Cc1noc(C2=CCCN(C)C2)n1` [Compound 36, 3-methyl-5-(1-methyl-1,2,5,6-tetrahydropyridin-3-yl)-1,2,4-oxadiazole], the Papp (PAMPA test, Example 34) was 12.8 ×10⁻⁶ cm/s, the “extent of metabolism in FMO Supersomes (in words)” value (human FMO1 Supersomes) was “almost completely metabolized” and the “metabolism in rat liver microsomes (in words)” value [3] was “nearly completely metabolized”. For the same molecule, the “metabolism in human liver microsomes (in words)” value [4] was “nearly completely metabolized”, the “potency and efficacy at M1 muscarinic receptors (in words)” value ([5]; huM1/A9L) was “reasonable potency and efficacy” and the “selectivity between M1 and M3 receptors” value ([5]; huM1 versus huM3 A9L cells) was “shows some selectivity for M1 versus M3 receptors”. For the same molecule, the “huM1/A9L Smax” value [5, 7] was 72%, the “huM1/A9L ED50 relative to CCh*” value [5, 8] was “+ (+ potency 2-10x CCh)” and the “huM3/A9L Smax” value [6, 7] was 39%. The “huM3/A9L ED50 relative to CCh*” value [6, 8] was “+ (+ potency 2-10x CCh)”.
